Measured values: publication PMC12281424, “A Rac-specific competitive inhibitor of guanine nucleotide binding reduces metastasis in triple-negative breast cancer” (Cell Reports Medicine, 2025)

Key:
[1] = tested on: membrane receptors, ion channel, and kinases; assay: In vitro binding assays on a panel of potential targets
Method: (§1) Blood cell counts, kinase profiler, safety screen, bacterial cytotoxicity, Ames, micronucleus assays were performed by the company Eurofins (France). The kinase profiler was performed by the company Eurofins (Discovery, Panlab and Cerep).

[2] = Ames fluctuation test (7th group); assay type: cell-based
Text: Data S3. Ames-fluctuation assay-A41.
Test Concentration Count Positive Significance Fisher Exact Test

[3] = target: ATPase, Na+/K+, Heart, Pig (Sus scrofa, UniProt P05024); assay: Safety screen; assay type: biochemical
Method: as §1

[4] = tested on: Phosphodiesterase PDE4; assay: Safety screen; assay type: biochemical, human
Method: (§2) Blood cell counts, kinase profiler, safety screen, bacterial cytotoxicity, Ames, micronucleus assays were performed by the company Eurofins (France).

[5] = target: Adrenergic α1D (Homo sapiens, UniProt P25100); assay: Safety screen; assay type: binding
Method: as §2

[6] = tested on: Calcium Channel L-Type, Dihydropyridine; assay: Safety screen; assay type: binding, rat
[7] = tested on: Glycine, Strychnine-Sensitive; assay: Safety screen; assay type: binding, rat
[8] = tested on: Nicotinic Acetylcholine; assay: Safety screen; assay type: binding, human
Method: as §2

[9] = target: Nicotinic Acetylcholine α1, Bungarotoxin (Homo sapiens, UniProt P02708+P07510+Q07001); assay: Safety screen; assay type: binding
[10] = target: Serotonin (5-Hydroxytryptamine) 5-HT2B (Homo sapiens, UniProt P41595); assay: Safety screen; assay type: binding
Method: as §2

[11] = target: Tachykinin NK1 (Homo sapiens, UniProt P25103); assay: Safety screen; assay type: binding
Method: as §2

[12] = target: ACTR2(h) (Homo sapiens, UniProt P27037); assay: Kinase Profiler; assay type: biochemical
Method: (§3) The kinase profiler was performed by the company Eurofins (Discovery, Panlab and Cerep).

[13] = target: ALK(h) (Homo sapiens, UniProt Q9UM73); assay: Kinase Profiler; assay type: biochemical
Method: as §3

[14] = target: ALK4(h) (Homo sapiens, UniProt P36896); assay: Kinase Profiler; assay type: biochemical
Method: as §3

[15] = target: B-Raf(V599E)(h) (Homo sapiens, UniProt P15056, V600E); assay: Kinase Profiler; assay type: biochemical
Method: as §1

[16] = target: CDK18/cyclinY(h) (Homo sapiens, UniProt Q07002); assay: Kinase Profiler; assay type: biochemical
Method: as §3

[17] = target: CDKL1(h) (Homo sapiens, UniProt Q00532); assay: Kinase Profiler; assay type: biochemical
Method: as §3

[18] = target: CHK2(h) (Homo sapiens, UniProt O96017); assay: Kinase Profiler; assay type: biochemical
Method: as §3

[19] = target: DCAMKL1(h) (Homo sapiens, UniProt O15075); assay: Kinase Profiler; assay type: biochemical
Method: as §1

[20] = target: EGFR(L858R)(h) (Homo sapiens, UniProt P00533, L858R); assay: Kinase Profiler; assay type: biochemical
Method: as §3

[21] = target: Fms(h) (Homo sapiens, UniProt P07333); assay: Kinase Profiler; assay type: biochemical
Method: as §3

[22] = target: GRK2(h) (Homo sapiens, UniProt P25098); assay: Kinase Profiler; assay type: biochemical
Method: as §1

[23] = target: HIPK4(h) (Homo sapiens, UniProt Q8NE63); assay: Kinase Profiler; assay type: biochemical
Method: as §3

[24] = target: HRI(h) (Homo sapiens, UniProt Q9BQI3); assay: Kinase Profiler; assay type: biochemical
Method: as §3

[25] = target: IGF-1R(h), activated (Homo sapiens, UniProt P08069); assay: Kinase Profiler; assay type: biochemical
Method: as §1

[26] = target: IRAK1(h) (Homo sapiens, UniProt P51617); assay: Kinase Profiler; assay type: biochemical
Method: as §1

[27] = target: MLK4(h) (Homo sapiens, UniProt Q5TCX8); assay: Kinase Profiler; assay type: biochemical
Method: as §1

[28] = target: MST3(h) (Homo sapiens, UniProt Q9Y6E0); assay: Kinase Profiler; assay type: biochemical
Method: as §3

[29] = target: NEK7(h) (Homo sapiens, UniProt Q8TDX7); assay: Kinase Profiler; assay type: biochemical
Method: as §3

[30] = target: OSR1(h) (Homo sapiens, UniProt O95747); assay: Kinase Profiler; assay type: biochemical
Method: as §1

[31] = target: p70S6K(h) (Homo sapiens, UniProt P23443); assay: Kinase Profiler; assay type: biochemical
Method: as §1

[32] = target: PDGFRα(h) (Homo sapiens, UniProt P16234); assay: Kinase Profiler; assay type: biochemical
Method: as §3

[33] = target: PKG1α(h) (Homo sapiens, UniProt Q13976); assay: Kinase Profiler; assay type: biochemical
Method: as §3

[34] = target: SBK1(h) (Homo sapiens, UniProt Q52WX2); assay: Kinase Profiler; assay type: biochemical
Method: as §3

[35] = target: TBK1(h) (Homo sapiens, UniProt Q9UHD2); assay: Kinase Profiler; assay type: biochemical
Method: as §1

[36] = target: Tie2(R849W)(h) (Homo sapiens, UniProt Q02763, R849W); assay: Kinase Profiler; assay type: biochemical
Method: as §1

[37] = target: TrkA(h) (Homo sapiens, UniProt P04629); assay: Kinase Profiler; assay type: biochemical
Method: as §3

[38] = target: TSSK1(h) (Homo sapiens, UniProt Q9BXA7); assay: Kinase Profiler; assay type: biochemical
Method: as §3

[39] = target: ZIPK(h) (Homo sapiens, UniProt O43293); assay: Kinase Profiler; assay type: biochemical
Method: as §3

[40] = target: PI3K (p110a/p85a)(m) (Mus musculus, UniProt P42337); assay: Kinase Profiler; assay type: biochemical
Method: as §1

[41] = target: PIP5K1g(h) (Homo sapiens, UniProt O60331); assay: Kinase Profiler; assay type: biochemical
Method: as §1

Sequence of MST3(h) (Q9Y6E0 whole entry): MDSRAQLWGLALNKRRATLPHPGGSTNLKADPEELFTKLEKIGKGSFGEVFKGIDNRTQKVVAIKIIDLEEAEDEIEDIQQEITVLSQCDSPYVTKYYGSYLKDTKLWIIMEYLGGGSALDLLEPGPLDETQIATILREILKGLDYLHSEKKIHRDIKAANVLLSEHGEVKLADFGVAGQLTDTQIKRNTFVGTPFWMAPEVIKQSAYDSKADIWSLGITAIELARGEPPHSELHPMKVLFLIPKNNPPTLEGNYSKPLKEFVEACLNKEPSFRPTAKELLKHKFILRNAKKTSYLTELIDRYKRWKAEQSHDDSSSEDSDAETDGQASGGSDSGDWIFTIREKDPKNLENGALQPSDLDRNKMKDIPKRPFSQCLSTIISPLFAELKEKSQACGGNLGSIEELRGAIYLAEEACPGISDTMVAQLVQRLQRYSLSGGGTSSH
Sequence of Adrenergic α1D (P25100 whole entry): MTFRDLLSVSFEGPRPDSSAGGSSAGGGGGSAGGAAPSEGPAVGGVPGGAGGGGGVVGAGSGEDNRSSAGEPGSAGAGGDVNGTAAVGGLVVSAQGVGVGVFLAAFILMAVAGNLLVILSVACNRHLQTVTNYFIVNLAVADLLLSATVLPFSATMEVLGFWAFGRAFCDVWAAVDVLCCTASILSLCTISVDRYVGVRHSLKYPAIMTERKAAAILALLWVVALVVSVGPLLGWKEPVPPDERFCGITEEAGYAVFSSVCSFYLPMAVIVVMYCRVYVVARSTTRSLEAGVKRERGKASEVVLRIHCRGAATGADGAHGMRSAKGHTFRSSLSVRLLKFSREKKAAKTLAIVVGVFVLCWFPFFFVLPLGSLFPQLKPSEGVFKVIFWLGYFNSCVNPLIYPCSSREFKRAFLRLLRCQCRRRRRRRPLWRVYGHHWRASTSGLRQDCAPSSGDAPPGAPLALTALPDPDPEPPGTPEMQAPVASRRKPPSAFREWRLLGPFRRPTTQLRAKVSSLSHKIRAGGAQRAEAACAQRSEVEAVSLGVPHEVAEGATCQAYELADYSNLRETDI
Sequence of CHK2(h) (O96017 whole entry): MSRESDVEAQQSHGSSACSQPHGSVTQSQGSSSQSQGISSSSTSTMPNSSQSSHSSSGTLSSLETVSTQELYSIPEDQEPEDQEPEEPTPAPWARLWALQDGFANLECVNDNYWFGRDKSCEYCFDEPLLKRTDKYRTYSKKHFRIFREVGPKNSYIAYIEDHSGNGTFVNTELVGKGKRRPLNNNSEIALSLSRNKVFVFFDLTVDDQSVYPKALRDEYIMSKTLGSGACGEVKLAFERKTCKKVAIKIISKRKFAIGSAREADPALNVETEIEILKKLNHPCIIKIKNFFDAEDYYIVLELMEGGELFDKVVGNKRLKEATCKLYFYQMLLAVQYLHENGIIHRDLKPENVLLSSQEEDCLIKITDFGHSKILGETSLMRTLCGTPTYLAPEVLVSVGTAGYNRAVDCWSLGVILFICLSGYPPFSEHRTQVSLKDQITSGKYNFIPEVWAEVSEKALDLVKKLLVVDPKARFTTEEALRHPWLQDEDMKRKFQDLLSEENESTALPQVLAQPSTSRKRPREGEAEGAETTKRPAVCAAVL
Sequence of Serotonin (5-Hydroxytryptamine) 5-HT2B (P41595 whole entry): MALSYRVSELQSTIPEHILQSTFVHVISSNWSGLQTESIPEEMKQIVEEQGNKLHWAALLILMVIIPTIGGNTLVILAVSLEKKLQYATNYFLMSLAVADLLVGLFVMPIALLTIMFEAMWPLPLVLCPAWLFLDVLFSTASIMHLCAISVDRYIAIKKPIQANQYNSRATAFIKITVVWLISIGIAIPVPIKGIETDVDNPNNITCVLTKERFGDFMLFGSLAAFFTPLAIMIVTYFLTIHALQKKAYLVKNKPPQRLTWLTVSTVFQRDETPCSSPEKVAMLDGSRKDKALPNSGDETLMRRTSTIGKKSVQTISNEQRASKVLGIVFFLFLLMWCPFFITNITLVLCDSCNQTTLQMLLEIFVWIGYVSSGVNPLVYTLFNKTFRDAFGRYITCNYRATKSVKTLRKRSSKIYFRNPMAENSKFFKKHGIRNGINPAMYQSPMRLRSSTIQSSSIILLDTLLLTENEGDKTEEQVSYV
Sequence of TBK1(h) (Q9UHD2 whole entry): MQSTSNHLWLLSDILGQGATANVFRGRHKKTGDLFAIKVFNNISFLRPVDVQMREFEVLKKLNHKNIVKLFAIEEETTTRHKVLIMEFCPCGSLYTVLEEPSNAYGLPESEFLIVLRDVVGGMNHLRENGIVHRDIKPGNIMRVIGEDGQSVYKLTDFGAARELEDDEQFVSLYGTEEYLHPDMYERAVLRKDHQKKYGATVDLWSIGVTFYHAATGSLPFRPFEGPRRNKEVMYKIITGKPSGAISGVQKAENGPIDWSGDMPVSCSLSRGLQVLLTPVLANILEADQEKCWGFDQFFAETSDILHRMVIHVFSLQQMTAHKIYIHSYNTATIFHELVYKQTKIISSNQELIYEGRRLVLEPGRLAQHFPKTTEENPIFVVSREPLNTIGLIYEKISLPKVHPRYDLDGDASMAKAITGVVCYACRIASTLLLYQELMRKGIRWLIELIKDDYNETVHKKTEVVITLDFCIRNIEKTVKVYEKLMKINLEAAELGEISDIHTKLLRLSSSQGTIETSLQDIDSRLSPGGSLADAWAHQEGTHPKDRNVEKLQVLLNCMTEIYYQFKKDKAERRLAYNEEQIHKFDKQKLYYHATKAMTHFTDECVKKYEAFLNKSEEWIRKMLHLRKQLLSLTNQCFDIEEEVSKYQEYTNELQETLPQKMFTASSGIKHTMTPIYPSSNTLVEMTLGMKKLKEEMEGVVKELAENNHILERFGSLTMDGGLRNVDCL
Sequence of CDKL1(h) (Q00532 whole entry): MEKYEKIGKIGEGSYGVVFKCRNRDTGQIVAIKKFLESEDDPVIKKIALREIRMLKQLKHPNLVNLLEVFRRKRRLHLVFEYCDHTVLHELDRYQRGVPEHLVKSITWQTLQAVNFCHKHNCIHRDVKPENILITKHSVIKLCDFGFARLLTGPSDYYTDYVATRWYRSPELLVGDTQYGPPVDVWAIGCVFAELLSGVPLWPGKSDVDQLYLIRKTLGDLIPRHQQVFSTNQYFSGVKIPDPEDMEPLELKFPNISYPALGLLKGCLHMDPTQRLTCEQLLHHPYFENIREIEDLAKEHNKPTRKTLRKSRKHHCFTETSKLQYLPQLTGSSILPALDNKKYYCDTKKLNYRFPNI
Sequence of Fms(h) (P07333 20-972): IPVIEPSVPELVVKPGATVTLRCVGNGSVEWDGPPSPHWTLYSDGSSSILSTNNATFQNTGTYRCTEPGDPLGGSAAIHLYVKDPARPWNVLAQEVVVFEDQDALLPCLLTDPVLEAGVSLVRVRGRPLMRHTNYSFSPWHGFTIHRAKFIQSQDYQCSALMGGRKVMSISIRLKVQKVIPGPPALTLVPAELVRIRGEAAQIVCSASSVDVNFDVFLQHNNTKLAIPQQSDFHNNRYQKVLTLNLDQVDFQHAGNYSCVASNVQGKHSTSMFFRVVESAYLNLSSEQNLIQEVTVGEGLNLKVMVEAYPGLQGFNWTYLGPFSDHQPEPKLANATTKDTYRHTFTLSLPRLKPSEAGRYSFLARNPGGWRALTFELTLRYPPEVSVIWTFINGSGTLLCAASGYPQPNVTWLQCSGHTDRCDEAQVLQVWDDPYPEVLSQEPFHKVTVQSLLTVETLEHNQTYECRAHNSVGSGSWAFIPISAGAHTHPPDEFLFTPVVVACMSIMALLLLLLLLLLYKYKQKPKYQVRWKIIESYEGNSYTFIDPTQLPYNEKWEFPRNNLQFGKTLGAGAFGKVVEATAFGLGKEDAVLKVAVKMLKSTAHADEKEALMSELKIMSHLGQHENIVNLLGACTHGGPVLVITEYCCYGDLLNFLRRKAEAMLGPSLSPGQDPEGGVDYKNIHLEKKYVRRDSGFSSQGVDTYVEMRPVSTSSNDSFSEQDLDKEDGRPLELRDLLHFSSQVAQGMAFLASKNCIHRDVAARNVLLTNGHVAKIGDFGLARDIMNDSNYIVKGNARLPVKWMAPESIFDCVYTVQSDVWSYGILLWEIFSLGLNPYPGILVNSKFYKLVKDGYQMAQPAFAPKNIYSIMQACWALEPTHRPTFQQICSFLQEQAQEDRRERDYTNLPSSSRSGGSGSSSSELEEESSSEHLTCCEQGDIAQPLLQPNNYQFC
Sequence of ALK4(h) (P36896 24-505): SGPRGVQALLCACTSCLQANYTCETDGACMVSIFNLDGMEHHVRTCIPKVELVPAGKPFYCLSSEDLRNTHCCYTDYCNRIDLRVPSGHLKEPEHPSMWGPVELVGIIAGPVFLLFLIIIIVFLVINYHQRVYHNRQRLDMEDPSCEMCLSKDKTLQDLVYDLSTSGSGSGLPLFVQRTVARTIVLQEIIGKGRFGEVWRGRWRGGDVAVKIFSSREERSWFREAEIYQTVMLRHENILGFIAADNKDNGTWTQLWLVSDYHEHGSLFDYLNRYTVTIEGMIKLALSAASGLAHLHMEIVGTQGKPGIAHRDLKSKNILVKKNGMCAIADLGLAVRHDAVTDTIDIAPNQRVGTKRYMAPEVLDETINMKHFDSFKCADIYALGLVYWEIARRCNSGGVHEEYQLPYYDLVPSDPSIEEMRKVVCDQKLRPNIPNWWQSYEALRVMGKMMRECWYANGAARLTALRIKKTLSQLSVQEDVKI
Sequence of TSSK1(h) (Q9BXA7 whole entry): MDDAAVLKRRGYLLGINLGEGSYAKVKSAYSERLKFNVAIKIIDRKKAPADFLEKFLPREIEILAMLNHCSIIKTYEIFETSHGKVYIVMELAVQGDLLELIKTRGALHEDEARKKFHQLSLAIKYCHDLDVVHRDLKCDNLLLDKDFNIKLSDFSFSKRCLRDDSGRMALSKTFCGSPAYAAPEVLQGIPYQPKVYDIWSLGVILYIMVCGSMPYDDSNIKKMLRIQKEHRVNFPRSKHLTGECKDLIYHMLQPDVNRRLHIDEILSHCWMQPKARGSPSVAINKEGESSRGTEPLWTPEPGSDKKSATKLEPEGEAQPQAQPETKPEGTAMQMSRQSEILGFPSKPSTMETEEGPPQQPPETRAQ

COc1ccc(OC)c(NS(=O)(=O)c2ccc(NC(=O)CCSc3ccc(C)cc3)cc2)c1 [Compound A41]
off-target binding [1]: only very limited off-target binding | Count Positive (# of wells) ([2]; 1.0E-04 M): 1 | Count Positive (# of wells) ([2]; 1.0E-05 M): 0 | Count Positive (# of wells) ([2]; 5.0E-05 M): 0 | Count Positive (# of wells) ([2]; 5.0E-06 M): 1 | % inh. [3]: -15% | % inh. [4]: 4% | % inh. [5]: 21% | % inh. [6]: 85% | % inh. [7]: -1% | % inh. [8]: -3% | % inh. [9]: 0% | % inh. [10]: 90% | % inh. [11]: 41% | Activity(%) [12]: 108% | Activity(%) [13]: 82% | Activity(%) [14]: 101% | Activity(%) [15]: 87% | Activity(%) [16]: 101% | Activity(%) [17]: 105% | Activity(%) [18]: 111% | Activity(%) [19]: 99% | Activity(%) [20]: 104% | Activity(%) [21]: 112% | Activity(%) [22]: 96% | Activity(%) [23]: 105% | Activity(%) [24]: 98% | Activity(%) [25]: 108% | Activity(%) [26]: 104% | Activity(%) [27]: 104% | Activity(%) [28]: 95% | Activity(%) [29]: 97% | Activity(%) [30]: 103% | Activity(%) [31]: 103% | Activity(%) [32]: 92% | Activity(%) [33]: 113% | Activity(%) [34]: 101% | Activity(%) [35]: 102% | Activity(%) [36]: 101% | Activity(%) [37]: 99% | Activity(%) [38]: 103% | Activity(%) [39]: 103% | Activity(%) [40]: 102% | Activity(%) [41]: 104%
